Assay results taken from patent US12495798B2, “Nicotinamide compound and herbicidal composition comprising compound” (KOREA RESEARCH INSTITUTE OF CHEMICAL TECHNOLOGY, priority 2019, dated 2025).

How the values were obtained:
Type in all cases: in vivo
fall panicum = assay: Herbicidal activity test against upland field weeds (foliar treatment test); conditions: Panicum dichotomiflorum, scale 0-100; for pest or weed control at 50 g/ha: 50 g ai/ha
Outline: (§1)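 Greenhouse-grown plants (30±5 °C, 14/10 h light/dark) foliar hand-sprayed with compound in 50% acetone, 0.1% Tween-20 at 50 or 75 g a.i./ha. Control visually scored 0 (none) to 100 (complete) versus untreated after 14 days, or 21 days if needed.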

indian jointvetch = assay: as above; conditions: scale 0-100; for pest or weed control at 50 g/ha: 50 g ai/ha
Outline: as §1

sorghum [1] = assay: Herbicidal activity test against upland field weeds (soil treatment test); parameters: key to Soil treatment herbicidal activity, Sorghum: 0 (no control); 100 (complete control); conditions: scale 0 (no control) to 100 (complete control)
Outline: (§2)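 Pre-emergence soil surface spray, day after sowing, into sandy loam pots with fertilizer; compounds at 50 or 75 g a.i./ha in 50% acetone, 0.1% Tween-20. Greenhouse at 30±5 °C, 14/10 h light/dark; visual control rated 0–100 against untreated after 14 days (21 if needed).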

sorghum [2] = assay: Herbicidal activity test against upland field weeds (foliar treatment test); parameters: key to Foliar treatment herbicidal activity, Sorghum: 0 (no control); 100 (complete control); conditions: scale 0-100
Outline: as §1

barnyard grass = assay: as above; parameters: key to Foliar treatment herbicidal activity, barnyard grass: 0 (no control); 100 (complete control); conditions: scale 0-100
Outline: as §1

cocklebur [3] = assay: as above; parameters: key to Foliar treatment herbicidal activity, Cocklebur: 0 (no control); 100 (complete control); conditions: scale 0-100
Outline: as §1

velvetleaf = assay: Herbicidal activity test against upland field weeds (soil treatment test); parameters: key to Soil treatment herbicidal activity, velvet leaf: 0 (no control); 100 (complete control); conditions: scale 0 (no control) to 100 (complete control)
Outline: as §2

cotton = assay: Phytotoxicity test for upland field crops (foliar treatment test); parameters: key: 0 (no harm); 9 (complete withered)
Outline: (§3)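 Crops grown in greenhouse pots (30±5 °C, 14/10 h light) were foliar-sprayed with compound at 19–300 g a.i./ha in 33% acetone/0.1% Tween-20. Phytotoxicity scored 0 (no harm) to 9 (complete withering) versus untreated control at 7 and 14 days, 21 if needed.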

wheat = assay: as above; parameters: key: 0 (no harm); 9 (complete withered)
Outline: as §3

rice = assay: as above; parameters: key: 0 (no harm); 9 (complete withered)
Outline: as §3

corn = assay: as above; parameters: key: 0 (no harm); 9 (complete withered)
Outline: as §3

soybean = assay: as above; parameters: key: 0 (no harm); 9 (complete withered)
Outline: as §3

cocklebur [4] = assay: Herbicidal activity test against upland field weeds (soil treatment test); parameters: key to Soil treatment herbicidal activity, Cocklebur: 0 (no control); 100 (complete control); conditions: scale 0 (no control) to 100 (complete control); for Soil treatment herbicidal activity, Cocklebur: 50 g ai/ha
Outline: as §2

quack grass = assay: as above; parameters: key to Soil treatment herbicidal activity, quack grass: 0 (no control); 100 (complete control); conditions: scale 0 (no control) to 100 (complete control)
Outline: as §2

[5] = Echinochloa crus-galli, 50 g ai/ha
[6] = Xanthium strumarium, 50 g ai/ha
[7] = 50 g ai/ha, Cotton (7 days after treatment)
[8] = 50 g ai/ha, Cotton (14 days after treatment)
[9] = 100 g ai/ha, Cotton (7 days after treatment)
[10] = 100 g ai/ha, Cotton (14 days after treatment)
[11] = 50 g ai/ha, Wheat (7 days after treatment)
[12] = 50 g ai/ha, Wheat (14 days after treatment)
[13] = 100 g ai/ha, Wheat (7 days after treatment)
[14] = 100 g ai/ha, Wheat (14 days after treatment)
[15] = 50 g ai/ha, Rice (7 days after treatment)
[16] = 50 g ai/ha, Rice (14 days after treatment)
[17] = 100 g ai/ha, Rice (7 days after treatment)
[18] = 100 g ai/ha, Rice (14 days after treatment)
[19] = 50 g ai/ha, Corn (7 days after treatment)
[20] = 50 g ai/ha, Corn (14 days after treatment)
[21] = 100 g ai/ha, Corn (7 days after treatment)
[22] = 100 g ai/ha, Corn (14 days after treatment)
[23] = 50 g ai/ha, Soybean (7 days after treatment)
[24] = 50 g ai/ha, Soybean (14 days after treatment)
[25] = 100 g ai/ha, Soybean (7 days after treatment)
[26] = 100 g ai/ha, Soybean (14 days after treatment)
[27] = Xanthium strumarium, 75 g ai/ha

SMILES | pest or weed control at 50 g/ha (fall panicum) | pest or weed control at 50 g/ha (indian jointvetch) | Soil treatment herbicidal activity, velvet leaf (velvetleaf; 50 g ai/ha) | Foliar treatment phytotoxicity, Cotton (cotton; [7]) | Foliar treatment phytotoxicity, Cotton (cotton; [8]) | Foliar treatment phytotoxicity, Cotton (cotton; [9]) | Foliar treatment phytotoxicity, Cotton (cotton; [10]) | Foliar treatment phytotoxicity, Wheat (wheat; [11]) | Foliar treatment phytotoxicity, Wheat (wheat; [12]) | Foliar treatment phytotoxicity, Wheat (wheat; [13]) | Foliar treatment phytotoxicity, Wheat (wheat; [14]) | Foliar treatment phytotoxicity, Corn (corn; [19]) | Foliar treatment phytotoxicity, Corn (corn; [20]) | Foliar treatment phytotoxicity, Corn (corn; [21]) | Foliar treatment phytotoxicity, Corn (corn; [22]) | Foliar treatment phytotoxicity, Soybean (soybean; [23]) | Foliar treatment phytotoxicity, Soybean (soybean; [24]) | Foliar treatment phytotoxicity, Soybean (soybean; [25]) | Foliar treatment phytotoxicity, Soybean (soybean; [26]) | Soil treatment herbicidal activity, Cocklebur (cocklebur [4]) | other results
Cn1ncnc1COc1nc(C(F)(F)F)ccc1C(=O)Nc1nnnn1C [Compound No. 1-45, 2-((1-methyl-1H-1,2,4-triazol-5-yl)methoxy)-N-(1-methyl-1H-tetrazol-5-yl)-6-(trifluoromethyl)nicotinamide] | 95% | 70% | 100 | 5 | 9 | 5 | 9 | 0 | 0 | 0 | 0 | 1 | 0 | 3 | 2 | 6 | 7.5 | 7 | 9 | 0 | Soil treatment herbicidal activity, Sorghum (sorghum [1]; 50 g ai/ha): 0; plant injury at 50 g/ha (sorghum [2]; Sorghum, 50 g ai/ha): 50%; pest or weed control at 50 g/ha (barnyard grass; [5]): 95%; pest or weed control at 50 g/ha (cocklebur [3]; [6]): 95%; Foliar treatment phytotoxicity, Rice (rice; [15]): 6; Foliar treatment phytotoxicity, Rice (rice; [16]): 9; Foliar treatment phytotoxicity, Rice (rice; [17]): 6; Foliar treatment phytotoxicity, Rice (rice; [18]): 9; Soil treatment herbicidal activity, quack grass (quack grass; 50 g ai/ha): 0
Cn1nnc(COc2nc(C(F)(F)F)ccc2C(=O)Nc2nnnn2C)n1 [Compound No. 2-1, N-(1-methyl-1H-tetrazol-5-yl)-2-((2-methyl-2H-tetrazol-5-yl)methoxy)-6-(trifluoromethyl)nicotinamide] | 70% | 60% | 0 | 6 | 8 | 6 | 9 | 0 | 0 | 0 | 0 | 2 | 1 | 2 | 2 | 5 | 6 | 6 | 6 | 0 | Soil treatment herbicidal activity, Sorghum (sorghum [1]; 50 g ai/ha): 0; Foliar treatment herbicidal activity, Sorghum (sorghum [2]; 50 g ai/ha): 0; pest or weed control at 50 g/ha (barnyard grass; [5]): 98%; pest or weed control at 50 g/ha (cocklebur [3]; [6]): 60%; Foliar treatment phytotoxicity, Rice (rice; [15]): 4; Foliar treatment phytotoxicity, Rice (rice; [16]): 3; Foliar treatment phytotoxicity, Rice (rice; [17]): 5; Foliar treatment phytotoxicity, Rice (rice; [18]): 4; Soil treatment herbicidal activity, quack grass (quack grass; 50 g ai/ha): 0
Cn1nnc(CSCc2nc(C(F)(F)F)ccc2C(=O)N(C(=O)c2ccccc2)c2nnnn2C)n1 [Compound No. 2-109, N-benzoyl-N-(1-methyl-1H-tetrazol-5-yl)-2-((((2-methyl-2H-tetrazol-5-yl)methyl)thio)methyl)-6-(trifluoromethyl)nicotinamide] | 95% | 98% | 100 |  |  |  |  | 2 | 2 | 3 | 3 | 0 | 0 | 0 | 0 |  |  |  |  | 0 | Soil treatment herbicidal activity, Sorghum (sorghum [1]; 50 g ai/ha): 0; plant injury at 50 g/ha (sorghum [2]; Sorghum, 50 g ai/ha): 80%; Foliar treatment herbicidal activity, barnyard grass (barnyard grass; 50 g ai/ha): 100; Foliar treatment herbicidal activity, Cocklebur (cocklebur [3]; 50 g ai/ha): 100; Soil treatment herbicidal activity, quack grass (quack grass; 50 g ai/ha): 0
Cn1nnc(COCc2nc(C(F)(F)F)ccc2C(=S)Nc2nnnn2C)n1 [Compound No. 2-106, N-(1-methyl-1H-tetrazol-5-yl)-2-(((2-methyl-2H-tetrazol-5-yl)methoxy)methyl)-6-(trifluoromethyl)pyridin-3-carbothioamide] | 70% | 80% | 100 | 5 | 9 | 5 | 9 | 0 | 0 | 0 | 0 | 5 | 4 | 6 | 7 | 5 | 8 | 6 | 8 | 100 | plant injury at 50 g/ha (sorghum [1]; Sorghum, 50 g ai/ha): 70%; plant injury at 50 g/ha (sorghum [2]; Sorghum, 50 g ai/ha): 70%; pest or weed control at 50 g/ha (barnyard grass; [5]): 80%; pest or weed control at 50 g/ha (cocklebur [3]; [6]): 95%; Foliar treatment phytotoxicity, Rice (rice; [15]): 6; Foliar treatment phytotoxicity, Rice (rice; [16]): 7; Foliar treatment phytotoxicity, Rice (rice; [17]): 6; Foliar treatment phytotoxicity, Rice (rice; [18]): 8; Soil treatment herbicidal activity, quack grass (quack grass; 50 g ai/ha): 0
CN(Cc1nnn(C)n1)c1nc(C(F)(F)F)ccc1C(=O)Nc1nnnn1C [Compound No. 2-26, 2-(methyl((2-methyl-2H-tetrazol-5-yl)methyl)amino)-N-(1-methyl-1H-tetrazol-5-yl)-6-(trifluoromethyl)nicotinamide] |  |  |  | 1 | 4 | 2 | 4 | 1 | 0 | 1 | 0 | 0 | 0 | 0 | 0 | 3 | 9 | 4 | 9 |  | pest or weed control at 75 g/ha (fall panicum; 75 g ai/ha): 70%; pest or weed control at 75 g/ha (indian jointvetch; 75 g ai/ha): 90%; plant injury at 75 g/ha (sorghum [1]; Sorghum, 75 g ai/ha): 20%; plant injury at 75 g/ha (sorghum [2]; Sorghum, 75 g ai/ha): 10%; pest or weed control at 75 g/ha (barnyard grass; Echinochloa crus-galli, 75 g ai/ha): 98%; pest or weed control at 75 g/ha (cocklebur [3]; [27]): 98%; Soil treatment herbicidal activity, velvet leaf (velvetleaf; 75 g ai/ha): 100; pest or weed control at 75 g/ha (cocklebur [4]; [27]): 98%; Soil treatment herbicidal activity, quack grass (quack grass; 75 g ai/ha): 0
